Measurements taken from US8247211B2, “Glycopeptide antibiotics” (American Cyanamid Company, priority 2001, dated 2012).
≈ marks a conversion by molar mass, not a printed value. Values belong to the compound of their own block, whether it stands above or below them.

How the values were obtained:
Assay in all cases: In vitro antibacterial evaluation: minimum inhibitory concentration (MIC), broth dilution method
Format in all cases: cell-based
[1] = tested on: Enterococcus sp.; conditions: for MIC Enterococcus faecalis (ATCC 29212): strain ATCC 29212; for MIC Enterococcus faecalis (GC 2242): strain GC 2242; for MIC Enterococcus faecium (GC 2243): strain GC 2243; for MIC Enterococcus faecalis (GC 2691): strain GC 2691; for MIC Enterococcus faecalis (GC 3059): strain GC 3059; for MIC Enterococcus faecalis (GC 4552): strain GC 4552; for MIC Enterococcus faecalis (GC 4553): strain GC 4553; for MIC Enterococcus faecalis (GC 4554): strain GC 4554; for MIC Enterococcus faecium (GC 4556): strain GC 4556; for MIC Enterococcus faecium (GC 4557): strain GC 4557; for MIC Enterococcus avium (GC 4558): strain GC 4558; for MIC Enterococcus faecalis (GC 6189): strain GC 6189
Protocol: (§1) The minimum inhibitory concentration (MIC), the lowest concentration of the antibiotic which inhibits growth of the test organism, is determined by the broth dilution method using Muller-Hinton II […] (Baltimore Biological Laboratories) following the recommendations of the National Committee for Clinical Laboratory Standards [Methods for dilution antimicrobial susceptibility tests for bacteria that grow aerobically, approved standard M7-A2, National Committee for Clinical Laboratory Standards, Villanova, Pa].
(§2) An inoculum level of 5×10^5 CFU/mL, and a range of antibiotic concentrations (64-0.06 μg/mL) is used. […] The test organisms include a spectrum of Gram-positive bacteria comprised of Staphylococcus sp., Streptococcus sp. and Enterococcus sp. These organisms include recent clinical isolates that are resistant to methicillin, penicillin and/or vancomycin.

[2] = tested on: Escherichia coli; conditions: for MIC Escherichia coli (ATCC 25922): strain ATCC 25922; for MIC Escherichia coli (GC 4559): strain GC 4559
Protocol: as §1, §2

[3] = tested on: Staphylococcus sp.; conditions: broth dilution, 18 hours at 35° C.
Protocol: as §1, §2

[4] = tested on: Streptococcus sp.; conditions: for MIC Streptococcus pneumoniae (ATCC 6301): strain ATCC 6301; for MIC Streptococcus pneumoniae (GC 1894): strain GC 1894; for MIC Streptococcus pyogenes (GC 4563): strain GC 4563; for MIC Streptococcus agalactiae (GC 4564): strain GC 4564; for MIC Streptococcus pneumoniae (GC 4565): strain GC 4565
Protocol: as §1, §2

- MIC Enterococcus faecalis (ATCC 29212) [1]: <0.5 µg/mL
- MIC Enterococcus faecalis (GC 2242) [1]: <1 µg/mL
- MIC Enterococcus faecium (GC 2243) [1]: 1 µg/mL (≈ 0.702 µM)
- MIC Enterococcus faecalis (GC 2691) [1]: 1 µg/mL (≈ 0.702 µM)
- MIC Enterococcus faecalis (GC 3059) [1]: 1 µg/mL (≈ 0.702 µM)
- MIC Enterococcus faecalis (GC 4552) [1]: 1 µg/mL (≈ 0.702 µM)
- MIC Enterococcus faecalis (GC 4553) [1]: 1 µg/mL (≈ 0.702 µM)
- MIC Enterococcus faecalis (GC 4554) [1]: 1 µg/mL (≈ 0.702 µM)
- MIC Enterococcus faecium (GC 4556) [1]: 1 µg/mL (≈ 0.702 µM)
- MIC Enterococcus faecium (GC 4557) [1]: 1 µg/mL (≈ 0.702 µM)
- MIC Enterococcus avium (GC 4558) [1]: 1 µg/mL (≈ 0.702 µM)
- MIC Enterococcus faecalis (GC 6189) [1]: 1 µg/mL (≈ 0.702 µM)
- MIC Escherichia coli (ATCC 25922) [2]: 64 µg/mL (≈ 44.9 µM)
- MIC Escherichia coli (GC 4559) [2]: 64 µg/mL (≈ 44.9 µM)
- MIC Escherichi coli (GC 4560) ([2]; strain GC 4560): 1 µg/mL (≈ 0.702 µM)
- MIC Coagulase Negative Staphylococcus (GC 4547) ([3]; 5×10^5 CFU/mL): <0.5 µg/mL
- MIC Coagulase Negative Staphylococcus (GC 4548) ([3]; 5×10^5 CFU/mL): <0.5 µg/mL
- MIC Coagulase Negative Staphylococcus (GC 4549) ([3]; 5×10^5 CFU/mL): <0.5 µg/mL
- MIC Coagulase Negative Staphylococcus (GC 4551) ([3]; 5×10^5 CFU/mL): <0.5 µg/mL
- MIC Coagulase Negative Staphylococcus (GC 6257) ([3]; 5×10^5 CFU/mL): <0.5 µg/mL
- MIC Staphylococcus aureus (ATCC 29213) ([3]; 5×10^5 CFU/mL): 1 µg/mL (≈ 0.702 µM)
- MIC Staphylococcus aureus (GC 1131) ([3]; 5×10^5 CFU/mL): 1 µg/mL (≈ 0.702 µM)
- MIC Staphylococcus aureus (GC 3051) ([3]; 5×10^5 CFU/mL): 1 µg/mL (≈ 0.702 µM)
- MIC Staphylococcus aureus (GC 3053) ([3]; 5×10^5 CFU/mL): <0.5 µg/mL
- MIC Staphylococcus aureus (GC 4541) ([3]; 5×10^5 CFU/mL): 1 µg/mL (≈ 0.702 µM)
- MIC Staphylococcus aureus (GC 4542) ([3]; 5×10^5 CFU/mL): 1 µg/mL (≈ 0.702 µM)
- MIC Staphylococcus aureus (GC 4544) ([3]; 5×10^5 CFU/mL): 1 µg/mL (≈ 0.702 µM)
- MIC Staphylococcus aureus (GC 4545) ([3]; 5×10^5 CFU/mL): <0.5 µg/mL
- MIC Staphylococcus aureus-SMITH (GC 4543) ([3]; 5×10^5 CFU/mL): 1 µg/mL (≈ 0.702 µM)
- MIC Staphylococcus aureus (ATCC 29213) ([3]; strain ATCC 29213): 1 µg/mL (≈ 0.702 µM)
- MIC Staphylococcus aureus (GC 1131) ([3]; strain GC 1131): 1 µg/mL (≈ 0.702 µM)
- MIC Staphylococcus aureus (GC 3051) ([3]; strain GC 3051): 1 µg/mL (≈ 0.702 µM)
- MIC Staphylococcus aureus (GC 3053) ([3]; strain GC 3053): <0.5 µg/mL
- MIC Staphylococcus aureus (GC 4541) ([3]; strain GC 4541): 1 µg/mL (≈ 0.702 µM)
- MIC Staphylococcus aureus (GC 4542) ([3]; strain GC 4542): 1 µg/mL (≈ 0.702 µM)
- MIC Staphylococcus aureus-SMITH (GC 4543) ([3]; strain GC 4543): 1 µg/mL (≈ 0.702 µM)
- MIC Staphylococcus aureus (GC 4544) ([3]; strain GC 4544): 1 µg/mL (≈ 0.702 µM)
- MIC Staphylococcus aureus (GC 4545) ([3]; strain GC 4545): <0.5 µg/mL
- MIC Coagulase Negative Staphylococcus (GC 4547) ([3]; strain GC 4547): <0.5 µg/mL
- MIC Coagulase Negative Staphylococcus (GC 4548) ([3]; strain GC 4548): <0.5 µg/mL
- MIC Coagulase Negative Staphylococcus (GC 4549) ([3]; strain GC 4549): <0.5 µg/mL
- MIC Coagulase Negative Staphylococcus (GC 4551) ([3]; strain GC 4551): <0.5 µg/mL
- MIC Coagulase Negative Staphylococcus (GC 6257) ([3]; strain GC 6257): <0.5 µg/mL
- MIC Streptococcus pneumoniae (ATCC 6301) [4]: <0.5 µg/mL
- MIC Streptococcus pneumoniae (GC 1894) [4]: <0.5 µg/mL
- MIC Streptococcus pyogenes (GC 4563) [4]: <0.5 µg/mL
- MIC Streptococcus agalactiae (GC 4564) [4]: <0.5 µg/mL
- MIC Streptococcus pneumoniae (GC 4565) [4]: <0.5 µg/mL
SMILES: CCCc1ccc(C2OCC3OC(OC4C(CO)OC(Oc5ccc(CC6NC(=O)C(C(C)c7ccccc7)NC(=O)CNC(=O)C(CO)NC(=O)C(C(O)C7CNC(=N)N7C7OC(CO)C(O)C(O)C7O)NC(=O)C(C(O)C7CNC(=N)N7)NC6=O)cc5)C(O)C4O)C(O)C(O)C3O2)cc1 (stereo not drawn) [Example 140, Cyclo[glycyl-β-methylphenylalanyl-O-[4-O-[4,6-O-(4-propylbenzylidene)hexopyranosyl]-hexopyranosyl]tyrosyl-3-(2-iminoimidazolidin-4-yl)seryl-3-(3-hexopyranosyl-2-iminoimidazolidin-4-yl)serylseryl]]
- MIC Staphylococcus haemolyticus (GC 4546) ([3]; 5×10^5 CFU/mL): 1 µg/mL (≈ 0.702 µM)
- MIC Staphylococcus haemolyticus (GC 4546) ([3]; strain GC 4546): 1 µg/mL (≈ 0.702 µM)

- MIC Enterococcus faecalis (ATCC 29212) [1]: 2 µg/mL (≈ 1.4 µM)
- MIC Enterococcus faecalis (GC 2242) [1]: 2 µg/mL (≈ 1.4 µM)
- MIC Enterococcus faecium (GC 2243) [1]: 2 µg/mL (≈ 1.4 µM)
- MIC Enterococcus faecalis (GC 2691) [1]: 2 µg/mL (≈ 1.4 µM)
- MIC Enterococcus faecalis (GC 3059) [1]: 4 µg/mL (≈ 2.8 µM)
- MIC Enterococcus faecalis (GC 4552) [1]: 2 µg/mL (≈ 1.4 µM)
- MIC Enterococcus faecalis (GC 4553) [1]: 4 µg/mL (≈ 2.8 µM)
- MIC Enterococcus faecalis (GC 4554) [1]: 4 µg/mL (≈ 2.8 µM)
- MIC Enterococcus faecium (GC 4556) [1]: 2 µg/mL (≈ 1.4 µM)
- MIC Enterococcus faecium (GC 4557) [1]: 2 µg/mL (≈ 1.4 µM)
- MIC Enterococcus avium (GC 4558) [1]: 4 µg/mL (≈ 2.8 µM)
- MIC Enterococcus faecalis (GC 6189) [1]: 2 µg/mL (≈ 1.4 µM)
- MIC Escherichia coli (ATCC 25922) [2]: 32 µg/mL (≈ 22.4 µM)
- MIC Escherichia coli (GC 4559) [2]: 32 µg/mL (≈ 22.4 µM)
- MIC Coagulase Negative Staphylococcus (GC 4547) ([3]; 5×10^5 CFU/mL): 1 µg/mL (≈ 0.7 µM)
- MIC Coagulase Negative Staphylococcus (GC 4548) ([3]; 5×10^5 CFU/mL): 0.25 µg/mL (≈ 0.175 µM)
- MIC Coagulase Negative Staphylococcus (GC 4549) ([3]; 5×10^5 CFU/mL): 0.12 µg/mL (≈ 0.0839 µM)
- MIC Coagulase Negative Staphylococcus (GC 4551) ([3]; 5×10^5 CFU/mL): 0.5 µg/mL (≈ 0.35 µM)
- MIC Coagulase Negative Staphylococcus (GC 6257) ([3]; 5×10^5 CFU/mL): 0.25 µg/mL (≈ 0.175 µM)
- MIC Staphylococcus aureus (ATCC 29213) ([3]; 5×10^5 CFU/mL): 2 µg/mL (≈ 1.4 µM)
- MIC Staphylococcus aureus (GC 1131) ([3]; 5×10^5 CFU/mL): 1 µg/mL (≈ 0.7 µM)
- MIC Staphylococcus aureus (GC 3051) ([3]; 5×10^5 CFU/mL): 1 µg/mL (≈ 0.7 µM)
- MIC Staphylococcus aureus (GC 3053) ([3]; 5×10^5 CFU/mL): 1 µg/mL (≈ 0.7 µM)
- MIC Staphylococcus aureus (GC 4541) ([3]; 5×10^5 CFU/mL): 0.5 µg/mL (≈ 0.35 µM)
- MIC Staphylococcus aureus (GC 4542) ([3]; 5×10^5 CFU/mL): 0.5 µg/mL (≈ 0.35 µM)
- MIC Staphylococcus aureus (GC 4544) ([3]; 5×10^5 CFU/mL): 4 µg/mL (≈ 2.8 µM)
- MIC Staphylococcus aureus (GC 4545) ([3]; 5×10^5 CFU/mL): 1 µg/mL (≈ 0.7 µM)
- MIC Staphylococcus aureus-SMITH (GC 4543) ([3]; 5×10^5 CFU/mL): 1 µg/mL (≈ 0.7 µM)
- MIC Staphylococcus aureus (ATCC 29213) ([3]; strain ATCC 29213): 2 µg/mL (≈ 1.4 µM)
- MIC Staphylococcus aureus (GC 1131) ([3]; strain GC 1131): 1 µg/mL (≈ 0.7 µM)
- MIC Staphylococcus aureus (GC 3051) ([3]; strain GC 3051): 1 µg/mL (≈ 0.7 µM)
- MIC Staphylococcus aureus (GC 3053) ([3]; strain GC 3053): 1 µg/mL (≈ 0.7 µM)
- MIC Staphylococcus aureus (GC 4541) ([3]; strain GC 4541): 0.5 µg/mL (≈ 0.35 µM)
- MIC Staphylococcus aureus (GC 4542) ([3]; strain GC 4542): 0.5 µg/mL (≈ 0.35 µM)
- MIC Staphylococcus aureus-SMITH (GC 4543) ([3]; strain GC 4543): 1 µg/mL (≈ 0.7 µM)
- MIC Staphylococcus aureus (GC 4544) ([3]; strain GC 4544): 4 µg/mL (≈ 2.8 µM)
- MIC Staphylococcus aureus (GC 4545) ([3]; strain GC 4545): 1 µg/mL (≈ 0.7 µM)
- MIC Coagulase Negative Staphylococcus (GC 4547) ([3]; strain GC 4547): 1 µg/mL (≈ 0.7 µM)
- MIC Coagulase Negative Staphylococcus (GC 4548) ([3]; strain GC 4548): 0.25 µg/mL (≈ 0.175 µM)
- MIC Coagulase Negative Staphylococcus (GC 4549) ([3]; strain GC 4549): 0.12 µg/mL (≈ 0.0839 µM)
- MIC Coagulase Negative Staphylococcus (GC 4551) ([3]; strain GC 4551): 0.5 µg/mL (≈ 0.35 µM)
- MIC Coagulase Negative Staphylococcus (GC 6257) ([3]; strain GC 6257): 0.25 µg/mL (≈ 0.175 µM)
- MIC Streptococcus pneumoniae (ATCC 6301) [4]: <0.06 µg/mL
- MIC Streptococcus pneumoniae (GC 1894) [4]: <0.06 µg/mL
- MIC Streptococcus pyogenes (GC 4563) [4]: <0.06 µg/mL
- MIC Streptococcus agalactiae (GC 4564) [4]: <0.06 µg/mL
- MIC Streptococcus pneumoniae (GC 4565) [4]: <0.06 µg/mL
SMILES: CSc1ccc(C2OCC3OC(OC4C(CO)OC(Oc5ccc(CC6NC(=O)C(C(C)c7ccccc7)NC(=O)CNC(=O)C(CO)NC(=O)C(C(O)C7CNC(=N)N7C7OC(CO)C(O)C(O)C7O)NC(=O)C(C(O)C7CNC(=N)N7)NC6=O)cc5)C(O)C4O)C(O)C(O)C3O2)cc1 (stereo not drawn) [Example 144]
- MIC Staphylococcus haemolyticus (GC 4546) ([3]; 5×10^5 CFU/mL): 1 µg/mL (≈ 0.7 µM)
- MIC Staphylococcus haemolyticus (GC 4546) ([3]; strain GC 4546): 1 µg/mL (≈ 0.7 µM)
